# Conditions: buffer; pH 7.4; 200.0 µM
row,SMILES,solubility kinetic [µg/mL]
1,COC(=O)Cc1csc(NCc2ccccc2)n1,37.4
2,COC(=O)c1ccc(CNC(=O)COC(=O)/C=C/c2ccc(O)c(OC)c2)cc1,13.4
3,CC(=O)N1c2ccccc2C(=O)C1N(C)c1ccc(C)cc1 (centres undefined),16.9
4,CC(NC(=O)c1ccco1)c1ccc(-n2ccnc2)cc1 (centres undefined),> 42.2
5,Nc1nc(SCc2ccccc2)c2[nH]cnc2n1,38.4
6,CC(=O)O.NCC(c1ccco1)c1c[nH]c2ccccc12 (centres undefined),21.5
7,O=C(COc1ccc(Cl)cc1)NCc1ccccc1,25.6
8,O=C(CCN1C(=O)c2cccc([N+](=O)[O-])c2C1=O)Nc1nccs1,49.3
9,O=C(Cn1c(=O)oc2ccccc21)NCCc1ccccc1,44
10,O=C(Nc1nc2ccccc2s1)c1ccc([N+](=O)[O-])o1,< 0.2
11,CCC1CCc2sc(C(=O)NCc3ccccn3)cc2C1 (centres undefined),36.8
12,N#C/C(=C(/O)c1ccc(Cl)cc1)c1nc2ccccc2[nH]1,< 0.2
13,CCCCOC(=O)c1ccc(NC(=O)C(=O)NCc2ccco2)cc1,< 0.4
14,CC(OC(=O)c1ccc(O)cc1)C(=O)Nc1ccc(Oc2ccccc2)cc1 (centres undefined),5
15,O=C(CN1C(=O)NC2(CCCC2)C1=O)NCC1CCCO1 (centres undefined),38.5
16,Cn1c(/C(C#N)=C(\O)c2ccc([N+](=O)[O-])s2)nc2ccccc21,< 0.2
17,CCOC(=O)C1CCN(C/C=C/c2ccccc2[N+](=O)[O-])CC1,39.3
18,Cc1ccc(NC(=O)N2CCCCCC2)cc1C,> 37
19,Clc1ccc(N2CCN(Cc3ccco3)CC2)cc1,22.5
20,Cc1ccc(CNC(=O)Nc2ccc(Cl)cc2)cc1,< 0.3
21,Cc1ccc(C(=O)N2CCN(C(=O)c3ccc(C)cc3)C2)cc1,> 46.3
22,O=C(OCC(=O)N1CCCC1)c1cccc(Br)c1,> 46.8
23,Cc1ccc(F)cc1NC(=O)N1CCCN(C(=O)OC(C)(C)C)CC1,46.9
24,Cc1csc(NC(=O)c2ccc(S(C)(=O)=O)cc2)n1,> 44.5

row,SMILES,solubility kinetic [µg/mL]
1,COc1cccc(CNc2ccc(N3CCCCC3)cc2)c1OC,39.5
2,O=C(Nc1ccccc1Br)c1cc[n+]([O-])cc1,> 44
3,COc1ccc(/C=N\Nc2ncc(F)c(N3CCOCC3)n2)cc1OC,> 54.2
4,COc1cc(S(=O)(=O)N2CCOCC2)ccc1NC(=O)COC(=O)c1ccc(Cl)nc1,6.4
5,Cc1ccc(S(=O)(=O)Nc2cc3c4c(c2)CC(=O)N4CCC3)cc1,8.6
6,COCC1CCCN(Cc2nc(Cc3ccccc3)no2)C1 (centres undefined),44.7
7,CN(C)c1ccc(C(=O)N(Cc2ccccc2)Cc2ccccc2)cc1,< 0.4
8,Cc1ccc(S(=O)(=O)Nc2ccc3[nH]ccc3c2)cc1,> 43
9,CC1CC(C)CN(C(=O)c2cccc(NC(=O)CC3SC(N4CCCCC4)=NC3=O)c2)C1 (centres undefined),67.1
10,O=C(CCNC(=O)c1ccccc1)NNC(=O)c1ccccc1Br,> 58.5
11,Cc1ccc(S(=O)(=O)N2CCCCC2)cc1NC(=O)C1CCC1,16.4
12,O=C(CNC(=O)COc1ccccc1)NCc1cccnc1,> 44.9
13,O=C(COc1ccccc1)Nc1ccc2[nH]c(=O)[nH]c2c1,36.9
14,CCOC(=O)c1ccc(NC(=S)Nc2cc(C)cc(C)n2)cc1,< 0.2
15,CC(C)N1CCN(Cc2c[nH]c3ccccc23)CC1CCO (centres undefined),32.8
16,Cc1cc(C)c(S(=O)(=O)NCc2cccnc2)cc1C,> 43.6
17,Cc1[nH]c(=S)c(C#N)c(C)c1Cc1ccccc1,8.6
18,CCN(CC)C(=O)c1ccc(-c2cccs2)s1,32.6
19,CC(=O)NCCc1nc2cc(NC(=O)c3ccc(F)cc3)ccc2n1C,> 53.2
20,O=C(Nc1ccccc1Cl)c1ccc2ccccc2c1,< 0.6
21,O=C1CN(C(=S)Nc2ccccc2Cl)CCN1,> 40.5
22,Cc1ccc(Cl)cc1NC(=O)C1COc2ccccc2O1 (centres undefined),< 0.7
23,CCc1cccc(C)c1NC(=O)CN1C(=O)NC(CCc2ccccc2)C1=O (centres undefined),7.6
24,CC(=O)N1CCC(C(=O)Nc2cc(C)cc(C)c2)CC1,> 41.2

row,SMILES,solubility kinetic [µg/mL]
1,N#Cc1c(-c2ccc(Cl)cc2)ccnc1N1CCOCC1,3
2,CCCCOc1ccc(C(=O)Nc2ccc3c(c2)OCO3)cc1,< 0.7
3,CCOC(=O)NC(=S)Nc1ccc(C(C)(C)C)cc1,1.1
4,CC(=O)c1cc2c(cc1NC(=O)Cc1ccsc1)OCO2,10.5
5,CN(Cc1ccccn1)Cc1nc(COc2ccccc2)no1,45.7
6,CN(CC(=O)Nc1ccc2c(c1)OCCO2)CC(=O)Nc1ccc(F)c(F)c1F,> 61.4
7,COc1ccc(C(=O)O/N=C(/c2ccccc2)c2ccncc2)cc1,5.6
8,COc1cc(/C=C(/C#N)C(=O)NCc2ccccc2)cc(OC)c1OC,20
9,Cc1cccnc1N1C(=O)c2ccc(C(=O)O)cc2C1=O,> 42.3
10,Cc1ccc(N(Cc2ccccc2)C(=O)CN2C(=O)NC3(CCCC3)C2=O)cc1,> 58.7
11,CCNc1nc(=S)nc(NCc2ccccc2)[nH]1,4.6
12,CC(=O)c1cccc(Nc2cc(C)nc3c(C)cccc23)c1.Cl,> 49
13,CN(C(=O)CCN1C(=O)c2ccccc2C1=O)c1ccccc1,36.5
14,CC1CCCC(NC(=O)CSc2ccc(F)cc2)C1C (centres undefined),2.8
15,CC(C)[C@H](NC(=O)N1CC(=O)Nc2ccccc21)C(=O)N1CCC[C@@H]1C(=O)O,> 58.3
16,NC(N)=NC(N)=Nc1cccc2ccccc12,> 34.1
17,CSc1ncccc1C(=O)NCc1nnc2ccccn12,> 44.9
18,CC1CCCN(c2nc(N(C)c3ccccc3)nc(N)c2[N+](=O)[O-])C1 (centres undefined),4.5
19,COc1ccc(CC(=O)NC(C)CCc2ccccc2)cc1OC (centres undefined),> 49.1
20,COc1ccc([N+](=O)[O-])cc1C(=O)C(=O)c1ccccc1,< 0.6
21,CC(=O)Nc1cccc(NS(=O)(=O)c2c(C)noc2C)c1,> 46.4
22,CSc1nsc(SCC(=O)NCc2ccccc2)n1,46.7
23,Cc1ccc(Cl)cc1NC(=O)NCc1ccccn1,36.5
24,CC(=O)Nc1ccc(S(=O)(=O)Nc2ccc3ccccc3n2)cc1,14.2

row,SMILES,solubility kinetic [µg/mL]
1,COc1ccc(OC(C)C(=O)NC(C)c2ccccc2)cc1 (centres undefined),> 44.9
2,COc1ccc(NC(=O)CN2CCN(S(=O)(=O)N(C)C)CC2)cc1,> 53.5
3,O=C(Nc1ccc(F)cc1)Nc1cccc(Br)c1,0.7
4,COc1ccc(OC)c(NC(=O)CCn2ccnc2)c1,38.9
5,CN(Cc1ccccc1)C(=O)COC(=O)c1ccc(Cl)cc1N,2.4
6,CC1CCOC2(O1)C(=O)Nc1ccccc12 (centres undefined),24.4
7,O=C(c1cccc([N+](=O)[O-])c1)N1CCCC(C(=O)N2CCCCCC2)C1 (centres undefined),> 53.9
8,CC1=CC(C)(C)N2C(=O)C(=Nc3ccc(O)cc3)c3cccc1c32,9.4
9,S=C(NC1CC1)NC1CCCc2ccccc21 (centres undefined),> 37
10,CO/N=C/C(c1ccc(Cl)nc1)S(=O)(=O)c1ccccc1 (centres undefined),> 48.7
11,COc1ccc(NC(=O)CCn2cccc2)c(OC)c1,36.1
12,Cc1ccc(S(=O)(=O)N2CCOCC2)cc1C(=O)OCC(=O)N1CCCCC1,> 61.6
13,Cc1csc(SCC(=O)NC(C)c2ccccc2)n1 (centres undefined),> 43.9
14,Cc1ccc(N2C(=O)CCC2(C#N)c2ccccc2)cc1 (centres undefined),> 41.5
15,C[C@H](NC(=O)c1ccco1)C(=O)NCc1cccs1,> 41.7
16,COc1cccc(N2C(=O)/C(=C/c3ccc(C)o3)C(=O)NC2=S)c1,> 51.4
17,CC1=Nc2cc(C(=O)O)ccc2Sc2c(C)ccc(C)c21,42.1
18,COc1ccccc1OCCNC(=O)CC(NC(C)=O)c1ccccc1 (centres undefined),53.4
19,N#Cc1c(SCC(=O)O)nc(N2CCOCC2)c2c1CCCC2,> 50
20,Cc1cccc(N=C2NC(=O)/C(=C/c3cccn3C)S2)c1C,8.2
21,Cc1cccc(C(=O)OCC(=O)NC(=O)Cc2ccccc2)c1O,5.8
22,O=C(Nc1cccnc1Cl)c1cc(-c2cccc(O)c2)on1,0.3
23,CCOC(=O)C1=C(C)NC(=O)NC1/C=C/c1ccccc1OC (centres undefined),2.6
24,COc1ccc(NC(=S)NC2CC3CCC2C3)c(OC)c1 (centres undefined),14.8

row,SMILES,solubility kinetic [µg/mL]
1,O=C(COC(=O)c1ccc[nH]c1=O)NC1CC1,32.3
2,N/C(=N\O)c1cccc(CS(=O)(=O)c2ccccn2)c1,37
3,CC(=O)c1ccc(-n2ccc(=O)cc2)cc1,> 32
4,Cc1ccc(N=Cc2cc3c(cc2[N+](=O)[O-])OCO3)cc1[N+](=O)[O-],20.5
5,Cc1cc(=O)[nH]c(SCC(=O)Nc2nc3ccccc3s2)n1,> 49.9
6,CCN(Cc1ccccc1)C(=O)c1cccnc1,35.9
7,Fc1cccc(CN2CCSCC2)c1,6.3
8,Cc1cccc(C)c1OCC(=O)Nc1ccc(N2CCOCC2)cc1,6
9,Cc1ccc2c(c1)N(Cc1cccc(C#N)c1)C=NS2(=O)=O,8.1
10,NC(=O)C1CCN(C(=O)CC2(CC(=O)O)CCCC2)CC1,> 44.5
11,Cc1ccc(S(=O)(=O)N2CCN(C(=O)c3ccco3)CC2)c(C)c1,49
12,O=C(COC(=O)/C=C/c1ccco1)NC1CCCCC1,16.3
13,COc1ccc(-c2cc3ccccc3nc2N)cc1OC,3
14,O=C(NC(=S)Nc1ccccc1Br)C1CCCCC1,2.2
15,O=[N+]([O-])c1ccc(CSc2nc3ncc(Br)cc3[nH]2)cc1,1.3
16,Cc1cc(=O)[nH]c2ccc(S(=O)(=O)NC3CCCCC3)cc12,4.5
17,c1ccc(CNc2nc(-c3cccnc3)nc3ccccc23)cc1,13.6
18,O=S(=O)(c1cccs1)N1CCN(c2ccc(Cl)cc2)CC1,< 0.4
19,CCOC(=O)CC(NC(=O)c1ccccc1F)c1ccc(C)cc1 (centres undefined),34.5
20,O=[N+]([O-])c1ccc(S(=O)(=O)Nc2ncccn2)cc1,> 42
21,CCN(c1ccccc1)S(=O)(=O)c1ccc(Oc2ccccc2C(C)=O)nc1,18.6
22,CS/C(=C(/C#N)S(=O)(=O)c1ccc(Cl)cc1)N1CCOCC1,49.7
23,O=C(/C=C/c1ccc(Cl)cc1)Nc1ccc(N2CCOCC2)cc1,< 0.4
